How the values were obtained:
[1] = target: Serine/threonine-protein kinase PLK1 (Homo sapiens, UniProt P53350); test: Inhibition of human PLK1 incubated for 40 mins in presence of [gamma-33P]ATP by scintillation counting method
Wee1-like protein kinase = Wee1-like protein kinase (Homo sapiens, UniProt P30291); test: Inhibition of human WEE1 using LSNLYHQGKFLQTFCGSPLYRRR peptide as substrate incubated for 40 mins in presence of [gamma-33P]ATP by scintillation counting method
[2] = Oral bioavailability in CD-1 mouse at 10 mg/kg; assay type: ADME, organism-based; settings: in vivo

Chain of Serine/threonine-protein kinase PLK1 (P53350 whole entry): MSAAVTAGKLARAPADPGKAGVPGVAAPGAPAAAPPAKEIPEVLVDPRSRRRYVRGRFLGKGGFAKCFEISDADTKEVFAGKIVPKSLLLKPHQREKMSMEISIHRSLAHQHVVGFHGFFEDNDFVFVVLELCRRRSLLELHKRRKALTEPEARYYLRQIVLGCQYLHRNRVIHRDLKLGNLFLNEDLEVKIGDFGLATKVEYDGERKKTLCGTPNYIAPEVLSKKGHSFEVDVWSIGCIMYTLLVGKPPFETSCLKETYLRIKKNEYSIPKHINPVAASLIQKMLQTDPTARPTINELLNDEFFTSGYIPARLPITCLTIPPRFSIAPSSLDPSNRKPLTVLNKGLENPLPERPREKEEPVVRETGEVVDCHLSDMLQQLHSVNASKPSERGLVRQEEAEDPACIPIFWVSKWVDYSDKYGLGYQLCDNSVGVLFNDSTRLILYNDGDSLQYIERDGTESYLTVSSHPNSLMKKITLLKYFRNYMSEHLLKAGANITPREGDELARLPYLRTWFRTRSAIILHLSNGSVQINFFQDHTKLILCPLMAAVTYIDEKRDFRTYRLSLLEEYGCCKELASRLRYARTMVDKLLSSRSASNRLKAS
Chain of Wee1-like protein kinase (P30291 whole entry): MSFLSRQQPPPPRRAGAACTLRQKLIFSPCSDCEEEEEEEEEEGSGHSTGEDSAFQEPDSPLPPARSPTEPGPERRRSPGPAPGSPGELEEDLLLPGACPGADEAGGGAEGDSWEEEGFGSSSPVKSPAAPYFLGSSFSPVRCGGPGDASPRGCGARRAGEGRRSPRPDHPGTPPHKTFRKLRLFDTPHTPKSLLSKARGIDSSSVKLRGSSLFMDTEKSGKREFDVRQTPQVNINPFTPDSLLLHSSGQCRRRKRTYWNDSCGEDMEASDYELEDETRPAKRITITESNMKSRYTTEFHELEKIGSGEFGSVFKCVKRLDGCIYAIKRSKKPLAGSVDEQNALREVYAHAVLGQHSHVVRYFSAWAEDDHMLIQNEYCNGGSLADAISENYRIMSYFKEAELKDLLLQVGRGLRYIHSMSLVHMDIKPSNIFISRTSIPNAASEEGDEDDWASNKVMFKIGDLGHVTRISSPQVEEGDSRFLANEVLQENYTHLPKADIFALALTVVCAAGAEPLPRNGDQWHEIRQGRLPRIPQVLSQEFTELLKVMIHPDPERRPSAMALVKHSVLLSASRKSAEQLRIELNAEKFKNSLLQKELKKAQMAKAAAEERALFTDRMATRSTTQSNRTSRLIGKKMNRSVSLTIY

SMILES | IC50 [1] | IC50 (Wee1-like protein kinase) | bioavailability [2]
CC(C)(O)c1cccc(-n2cc(F)c3cnc(Nc4ccc(NC(=O)C5CCOCC5)cc4)nc32)n1 | 30 nM | 52 nM | –
CN1CCN(c2ccc(Nc3ncc4c(F)cn(-c5cccc(C6(F)COC6)n5)c4n3)cc2)CC1 | 24 nM | 19 nM | –
CCN1CCC(Oc2ccc(Nc3ncc4c(F)cn(-c5cccc(C(C)(C)O)n5)c4n3)cc2)CC1 | 39 nM | 19 nM | –
CN1CCC(NC(=O)c2ccc(Nc3ncc4c(F)cn(-c5cccc(C(C)(C)O)n5)c4n3)cc2)CC1 | 29 nM | 39 nM | –
CC(C)(O)c1cccc(-n2cc(F)c3cnc(Nc4ccc(N5C[C@H]6C[C@@H]5CN6)cc4)nc32)n1 | 19 nM | 21 nM | –
CN1CCN(c2ccc(Nc3ncc4c(F)cn(-c5cccc(N=S(C)(C)=O)n5)c4n3)cc2)CC1 | 384 nM | 26 nM | > 90%
CC(C)(O)c1cccc(-n2cc(F)c3cnc(Nc4ccc(N5CCNCC5)cc4)nc32)n1 | 60 nM | 52 nM | –
CC(C)(O)c1cccc(-n2cc(F)c3cnc(Nc4ccc(N5CCNC6(CC6)C5)cc4)nc32)n1 | 61 nM | 63 nM | –

Further compounds by falling IC50 [1], results first:

IC50 [1] | IC50 (Wee1-like protein kinase) | bioavailability [2] | SMILES
59 nM | 33 nM | – | CN1CCC(NC(=O)c2ccc(Nc3ncc4ccn(-c5cccc(C(C)(C)O)n5)c4n3)cc2)CC1
34 nM | 33 nM | – | CCN1CCC(NC(=O)c2ccc(Nc3ncc4c(F)cn(-c5cccc(C(C)(C)O)n5)c4n3)cc2)CC1
30 nM | 24 nM | – | CC(C)(O)c1cccc(-n2cc(F)c3cnc(Nc4ccc(N5C[C@@H]6C[C@H]5CN6)cc4)nc32)n1
9 nM | 45 nM | – | CC(C)(O)c1cccc(-n2cc(F)c3cnc(Nc4ccc(C(=O)NC5CCOCC5)cc4)nc32)n1
